Assay results from patent publication US8193377B2, “(−)-epigallocatechin gallate derivatives for inhibiting proteasome” (The Hong Kong Polytechnic University, priority 2004, dated 2012).

Columns and labels:
Format in all cases: cell-based, human
[1] = test system: MCF-7 cells; test: MTT assay; settings: 24 h
Procedure: MTT was used to determine effects of polyphenols on overall proliferation of tumor cells. Human breast MCF-7 cells were plated in a 96 well plate and grown to 70-80% confluency, followed by addition of analogs for 24 h. MTT (1 mg/ml) in PBS was then added to wells and incubated at 37° C. for 4 hours to allow for complete cleavage of the tetrazolium salt by metabolically active cells. Next, the MTT was removed and 100 μl of DMSO was added and colorimetric analysis performed using a multilabel plate reader at 560 nm (Victor^3; Perkin Elmer). Absorbance values plotted are the mean from triplicate experiments.
Treated breast cancer (MCF-7) cells were then treated with 5 or 25 μM of peracetate-protected analogs for 24 h, followed by MTT analysis to determine their effects on cell proliferation. Compound 1 at 25 μM inhibited cellular proliferation by 40% (FIG. 11A).

[2] = test system: ubiquitinated proteins, Bax, p27, IκBα in Jurkat T cells; test: Western blot for ubiquitinated proteins and proteasome targets (Bax, p27, IκBα) in Jurkat T cells; settings: 25 μM, 24 h
Procedure: (§1) Whole cells extracts were prepared as described previously (An B, Goldfarb R H, Siman R, Dou Q P. Novel dipeptidyl proteasome inhibitors overcome Bc1-2 protective function and selectively accumulate the cyclin-dependent kinase inhibitor p27 and induce apoptosis in transformed, but not normal, human fibroblasts. Cell Death Differ 1998; 5: 1062-75.). Analysis of Bax, IKBa, p27, PAW, and ubiquitinated protein expression were performed using monoclonal or polyclonal antibodies according to previously reported protocols (An B et. al.).
To determine what effects the synthetic tea analogs had on the proteasome in vivo, Jurkat cells were treated with 25 μM of each synthetic compound for either 4 or 24 h, with (−)-EGCG as a control (FIGS. 9A and 9B). […] This is consistent with the idea that protected analogs are potent inhibitors of the proteasome at an earlier time point and that after 24 h of treatment the ubiquitinated proteins are being depleted by deubiquitinating enzymes. […] The putative ubiquitinated IκBα band is still found in cells treated with 2a, 3a, and 4a (FIG. 9B, Lanes 9, 5, 7). The presumed ubiquinated IκBα band is now absent in the 24 h treatment, possibly due to deubiquitination (FIG. 9B). Actin was used as a loading control in this experiment.
The pro-apoptotic protein Bax and the cyclin-dependent kinase inhibitor p27 are natural proteasome targets. If the peracetate-protected polyphenols inhibit the intact proteasome activity, we would expect accumulation of Bax and p27 in these cells. To test this idea, Jurkat T cells were treated with both protected and unprotected compounds and lysates were analyzed by Western blot using specific antibodies to Bax and p27 (FIG. 15). After 4 h of treatment, the peracetate-protected analogs 24* and 19*, but not their unprotected analogs, were able to increase accumulation of both Bax (by 3- and 2.5-fold, respectively) and p27 (6- and 11-fold, respectively) (FIG. 15A). After 24 h treatment, Bax levels were increased in cells treated with all of the peracetate-protected compounds (13-, 12-, 40- and 36-fold, respectively, by 24*, 19*, 21* and 23*).

[3] = test system: ubiquitin-conjugated proteins in LNCaP cells; test: Western blot for ubiquitin-conjugated proteins in LNCaP cells; settings: 25 μM, 24 h
Procedure: as §1
To determine if acetate-protected analogs are potent proteasome inhibitors in other cancer cell systems, prostate cancer LNCaP cells were treated for 24 h with 25 μM of (−)-EGCG, 1, 2a, or 3a, with DMSO as a control.

[4] = test system: LNCaP cells; test: Apoptotic morphological changes, phase contrast; settings: 25 μM, 24 h
[5] = test system: Jurkat T cells; test: Western blot for PARP cleavage in Jurkat T cells; settings: 25 μM, 24 h
Procedure: as §1
It has been shown that proteasome inhibition can induce apoptosis in a wide variety of cancer cells, but not in normal, non-transformed cells (An B et al). Jurkat T cells are treated with 25 μM of each of the selected polyphenols and their protected analogs for 24 h to investigate their abilities to induce apoptotic cell death. […] The unprotected 2 induced much less apoptosis (21%), while 25 μM VP-16, used as a positive control, induced 92% apoptosis (FIGS. 10C and 10D). Counterstain with DAPI, which binds to the minor groove in A-T rich regions of DNA, was decreased drastically in apoptotic cells (FIG. 10C), consistent with DNA fragmentation in late stage apoptosis.
To determine if the cell death observed (FIG. 16) was due to the induction of apoptosis, a similar experiment was performed in Jurkat T cells, followed by measurement of caspase-3 activation and PARP cleavage.

[6] = test system: Jurkat T cells; test: Trypan blue cell death assay in Jurkat T cells; settings: 25 μM, 24 h

SMILES: CC(=O)Oc1ccc(C(=O)O[C@@H]2Cc3c(OC(C)=O)cc(OC(C)=O)cc3O[C@H]2c2cc(OC(C)=O)c(OC(C)=O)c(OC(C)=O)c2)cc1 (relative stereo) [Compound 3a, (2S*,3R*)-trans-5,7-Bis(acetyloxy)-2-[3,4,5-tris(acetyloxy)phenyl]chroman-3-yl 4-(acetyloxy)benzoate]
- inhibition of cellular proliferation ([1]; 5 μM): 50%
- inhibition of cellular proliferation ([1]; 25 μM): 70%
- accumulation of p27 [2]: Accumulation of p27
- ubiquitin-conjugated proteins [3]: greatest increase
- apoptotic morphological changes [4]: dramatic round-up, detachment, and cellular fragmentation
- apoptosis-specific PARP cleavage [5]: induced apoptosis-specific PARP cleavage
- cell death (trypan blue) [6]: 57%
